Reference: ChEMBL document CHEMBL4834434, “Discovery of Novel and Potent N-Methyl-d-aspartate Receptor Positive Allosteric Modulators with Antidepressant-like Activity in Rodent Models” (J Med Chem, 2021)
The source made the active and inactive calls. The rule behind the calls is not given here.

Tests used:
[1] = Cytotoxicity against African green monkey Vero cells assessed as cell growth inhibition at 60 uM measured after 48 hrs by CCK8 assay relative to control; format: cell-based; settings: chlorocebus sabaeus
[2] = system: Mus musculus; test: Antidepressant activity in ICR mouse aassessed as inhibition of apomorphine-induced climbing behaviour at 10 mg/kg, ip administered prior to APO challenge and measured after 30 mins; format: functional, organism-based
[3] = molecular target: T1, hERG (KCNH2) (Homo sapiens, UniProt Q12809); test: Inhibition of human ERG expressed in CHO cells at 30 uM with holding potential at -80 to -60 mV for 500s followed by raise in potential at +30 mV for 2 sec and subsequent repolarization to -60 mV for 2 sec by whole-cell patch clamp method relative to control; format: cell-based; settings: CHO cells expressing human ERG
T1 sequence (Q12809 whole entry): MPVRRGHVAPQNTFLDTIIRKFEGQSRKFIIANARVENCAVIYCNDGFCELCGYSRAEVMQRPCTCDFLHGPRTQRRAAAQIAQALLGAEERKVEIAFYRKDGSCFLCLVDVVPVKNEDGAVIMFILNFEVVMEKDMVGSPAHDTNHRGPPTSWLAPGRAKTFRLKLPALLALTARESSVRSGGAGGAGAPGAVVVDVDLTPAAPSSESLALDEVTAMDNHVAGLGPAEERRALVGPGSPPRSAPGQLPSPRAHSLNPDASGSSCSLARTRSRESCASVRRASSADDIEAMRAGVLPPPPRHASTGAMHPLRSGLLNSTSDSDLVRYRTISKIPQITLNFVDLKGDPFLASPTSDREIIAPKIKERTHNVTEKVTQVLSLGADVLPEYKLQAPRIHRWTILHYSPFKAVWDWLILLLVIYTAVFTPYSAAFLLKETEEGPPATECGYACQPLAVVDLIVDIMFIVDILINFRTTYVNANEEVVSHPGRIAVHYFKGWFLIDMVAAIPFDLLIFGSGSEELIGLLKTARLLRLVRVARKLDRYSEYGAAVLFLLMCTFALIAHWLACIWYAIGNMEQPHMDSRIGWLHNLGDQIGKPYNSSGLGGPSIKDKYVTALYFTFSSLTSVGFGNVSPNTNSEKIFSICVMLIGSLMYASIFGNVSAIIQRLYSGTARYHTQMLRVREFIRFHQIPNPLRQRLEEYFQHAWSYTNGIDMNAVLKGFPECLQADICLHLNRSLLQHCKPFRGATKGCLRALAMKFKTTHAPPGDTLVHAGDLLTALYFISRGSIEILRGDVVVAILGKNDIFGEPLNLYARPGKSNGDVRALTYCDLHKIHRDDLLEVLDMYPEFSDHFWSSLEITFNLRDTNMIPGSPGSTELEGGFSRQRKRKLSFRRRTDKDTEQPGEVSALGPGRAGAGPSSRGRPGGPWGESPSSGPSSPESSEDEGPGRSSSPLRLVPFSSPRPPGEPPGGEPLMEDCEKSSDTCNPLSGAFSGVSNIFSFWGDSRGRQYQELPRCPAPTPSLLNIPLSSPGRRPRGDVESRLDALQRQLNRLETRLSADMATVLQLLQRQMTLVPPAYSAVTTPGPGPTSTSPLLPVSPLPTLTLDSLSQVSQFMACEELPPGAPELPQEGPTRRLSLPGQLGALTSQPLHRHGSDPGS

[4] = molecular target: T2, Glutamate NMDA receptor (Mus musculus) (UniProt P35436+Q91ZU9+Q03391+P35438+Q01097+Q01098+A2AIR5); test: Positive allosteric modulation of C57BL/6 mouse NMDA receptor assessed as fold change in compound potentiated NMDA-induced current relative to NMDA current alone in presence of saturating glutamate by patch-clamp method; format: tissue-based; settings: Brain, filed as positive allosteric modulator
[5] = Effect on locomotor activity in ICR mouse assessed as hyperlocomotion at 10 mg/kg, ip measured after 90 mins; format: ADME, organism-based; settings: in vivo, 1.5 h
[6] = Cytotoxicity against human HEK293 cells assessed as cell growth inhibition at 60 uM measured after 48 hrs by CCK8 assay relative to control; format: cell-based
[7] = Brain to blood partition coefficient of the compound; format: physicochemical, tissue-based; settings: read-out: logBB (converted)
[8] = molecular target: T1, hERG (KCNH2); test: Inhibition of human ERG expressed in CHO cells at 100 uM with holding potential at -80 to -60 mV for 500s followed by raise in potential at +30 mV for 2 sec and subsequent repolarization to -60 mV for 2 sec by whole-cell patch clamp method relative to control; format: cell-based; settings: CHO cells expressing human ERG
[9] = Effect on locomotor activity in ICR mouse assessed as hypolocomotion at 10 mg/kg, ip measured after 90 mins; format: ADME, organism-based; settings: in vivo, 1.5 h
[10] = Cytotoxicity against African green monkey Vero cells assessed as cell growth inhibition at 120 uM measured after 48 hrs by CCK8 assay relative to control; format: cell-based; settings: chlorocebus sabaeus
[11] = Cytotoxicity against mouse L929 cells assessed as cell growth inhibition at 60 uM measured after 48 hrs by CCK8 assay relative to control; format: cell-based
[12] = molecular target: T2, Glutamate NMDA receptor (Mus musculus); test: Positive allosteric modulation of C57BL/6 mouse NMDA receptor assessed as fold change in compound potentiated NMDA-induced current relative to NMDA current alone at 30 uM measured after 15 to 30 mins by patch-clamp method; format: tissue-based; settings: Brain, filed as positive allosteric modulator, time 15-30 min
[13] = system: Mus musculus; test: Antidepressant activity in ICR mouse assessed as decrease in immobility time at 30 mg/kg, ip measured after 26 mins by forced swim test; format: functional, organism-based
[14] = Cytotoxicity against human HEK293 cells assessed as cell growth inhibition at 120 uM measured after 48 hrs by CCK8 assay relative to control; format: cell-based
[15] = Cytotoxicity against mouse L929 cells assessed as cell growth inhibition at 120 uM measured after 48 hrs by CCK8 assay relative to control; format: cell-based
[16] = molecular target: Glutamate NMDA receptor; test: Positive allosteric modulation of C57BL/6 mouse NMDA receptor assessed as potentiation of NMDA-induced current in presence of saturating glutamate by patch-clamp method; format: tissue-based, Brain
[17] = system: Mus musculus; test: Antidepressant activity in icv dosed C57BL/6N mouse assessed as decrease in immobility time measured after 36 mins; format: functional, organism-based
[18] = molecular target: T2, Glutamate NMDA receptor (Mus musculus); test: Positive allosteric modulation of C57BL/6 mouse NMDA receptor assessed as potentiation of NMDA-induced current by measuring peak current amplitude at 30 uM measured after 15 to 30 mins by patch-clamp method (reference value: 54.6 +/- 4.6 pA); format: tissue-based; settings: Brain, filed as positive allosteric modulator, time 15-30 min
[19] = molecular target: Ionotropic glutamate receptor NMDA 1/2C (Homo sapiens) (UniProt Q05586+Q14957); test: Positive allosteric modulation of GluN1/GluN2C (unknown origin) expressed in HEK293 cells assessed as enhancement of current induced by […] and glycine at 30 uM by whole-cell patch clamp method; format: cell-based
[20] = molecular target: Glutamate NMDA receptor; GRIN1/GRIN2B (Homo sapiens) (UniProt Q05586+Q13224); test: Positive allosteric modulation of GluN1/GluN2B (unknown origin) expressed in HEK293 cells assessed as enhancement of current induced by […] and glycine at 30 uM by whole-cell patch clamp method; format: cell-based
[21] = molecular target: T3, Glutamate NMDA receptor; GRIN1/GRIN2A (Homo sapiens) (UniProt Q05586+Q12879); test: Effect on GluN1/GluN2A (unknown origin) expressed in HEK293 cells assessed as enhancement of NMDA-induced current at 30 uM by whole-cell patch clamp method; format: cell-based
[22] = molecular target: T3, Glutamate NMDA receptor; GRIN1/GRIN2A (Homo sapiens); test: Effect on GluN1/GluN2A (unknown origin) expressed in HEK293 cells assessed as enhancement of glycine-induced current at 30 uM by whole-cell patch clamp method; format: cell-based
[23] = molecular target: T3, Glutamate NMDA receptor; GRIN1/GRIN2A (Homo sapiens); test: Positive allosteric modulation of GluN1/GluN2A (unknown origin) expressed in HEK293 cells assessed as enhancement of current induced by […] and glycine at 30 uM by whole-cell patch clamp method; format: cell-based; settings: filed as positive allosteric modulator
[24] = system: Mus musculus; test: Antidepressant activity in icv dosed CSDS-induced C57BL/6N mouse model assessed as reversal of reduction in CSDS-induced social interaction administered for 10 days by social interaction test; format: functional, organism-based; settings: time 10.0 day
[25] = molecular target: Glutamate NMDA receptor; test: Positive allosteric modulation of ICR mouse primary cortical neuron NMDA receptor assessed as potentiation of glycine-induced current in presence of 100 uM NMDA by whole-cell patch clamp method; format: tissue-based, Brain
[26] = molecular target: Ionotropic glutamate receptor NMDA 1/2D (Homo sapiens) (UniProt Q05586+O15399); test: Negative allosteric modulation of GluN1/GluN2D (unknown origin) expressed in HEK293 cells assessed as inhibition of current induced by […] and glycine at 30 uM by whole-cell patch clamp method; format: cell-based; settings: filed as negative allosteric modulator
[27] = molecular target: T2, Glutamate NMDA receptor (Mus musculus); test: Positive allosteric modulation of ICR mouse primary cortical neuron NMDA receptor assessed as potentiation of NMDA-induced current at 10 uM in presence of 30 uM exogenous glycine by whole-cell patch clamp method; format: tissue-based; settings: Brain
[28] = system: Neuron; test: Effect on AMPA receptor in ICR mouse hippocampal neuron assessed as increase in AMPA-induced current at 30 uM; format: tissue-based
[29] = molecular target: T2, Glutamate NMDA receptor (Mus musculus); test: Positive allosteric modulation of ICR mouse primary cortical neuron NMDA receptor assessed as potentiation of NMDA-induced current at 10 uM in absence of exogenous glycine/D-serine by whole-cell patch clamp method; format: tissue-based
[30] = molecular target: Glutamate NMDA receptor; test: Positive allosteric modulation of ICR mouse primary cortical neuron NMDA receptor assessed as potentiation of NMDA-induced current in presence of 30 uM exogenous glycine by whole-cell patch clamp method (reference value: 23.9 +/- 1.3 uM); format: tissue-based, Brain
[31] = system: Neuron; test: Effect on GABA receptor in ICR mouse hippocampal neuron assessed as increase in GABA-induced current at 30 uM; format: tissue-based
[32] = molecular target: T2, Glutamate NMDA receptor (Mus musculus); test: Positive allosteric modulation of ICR mouse primary cortical neuron NMDA receptor assessed as potentiation of NMDA-induced maximum current by whole-cell patch clamp method; format: tissue-based; settings: Brain
[33] = system: Mus musculus; test: Antidepressant activity in ICR mouse assessed as decrease in immobility time at 3 to 10 mg/kg, ip measured after 26 mins by forced swim test; format: functional, organism-based; settings: dose 3-10 mg/kg

## Cc1cc(C)n(Cc2ccc(C(=O)Nc3ccc4cc[nH]c4c3)s2)n1
[1]
  inhibition at 48 h, 60 µM: -3.2%
[2]
  Activity: inactive
[3]
  inhibition at 2 s, 30 µM: 33.6%
[4]
  fold change (FC): 10.5
[5]
  Activity: Non-Toxic
[6]
  inhibition at 48 h, 60 µM: -7.4%
[7]
  Kp: 0.316
[8]
  inhibition at 2 s, 100 µM: 46.7%
[9]
  Activity: Non-Toxic
[10]
  inhibition at 48 h, 120 µM: -0.4%
[11]
  inhibition at 48 h, 60 µM: 2.8%
[12]
  fold change (FC): 8.9
[13]
  Activity: inactive
[14]
  inhibition at 48 h, 120 µM: 2.5%
[15]
  inhibition at 48 h, 120 µM: 25.5%
[16]
  EC50: 9 µM

## CNCCC(Oc1ccc(C(F)(F)F)cc1)c1ccccc1 (centres undefined)
[17]
  Activity: Active

## O=C(Nc1ccc(Cl)cc1C(=O)NCCCCO)c1ccco1
[7]
  Kp: 0.0776
[12]
  fold change (FC): 3.5
[18]
  Activity: 1320 pA

## Cc1cc(C)n(Cc2ccc(C(=O)Nc3ccc(Br)cc3C)o2)n1
[19]
  Activity: inactive
[20]
  Activity: inactive
[21]
  Activity: inactive
[4]
  fold change (FC): 3.8
[22]
  Activity: inactive
[7]
  Kp: 0.661
[23]
  Activity: Active
[17]
  Activity: Active
[24]
  Activity: Active
[25]
  EC50: 11.8 µM
[26]
  Activity: Active
[27]
  Activity: inactive
[28]
  Activity: inactive
[29]
  Activity: inactive
[30]
  EC50: 13.6 µM
[12]
  fold change (FC): 32
[31]
  Activity: inactive
[16]
  EC50: 8.8 µM
[18]
  Activity: 1180 pA
[32]
  Activity: inactive

## Cc1cc(C)n(Cc2ccc(C(=O)Nc3ccc(F)cc3C)s2)n1
[1]
  inhibition at 48 h, 60 µM: -1.5%
[2]
  Activity: inactive
[3]
  inhibition at 2 s, 30 µM: 33.4%
[4]
  fold change (FC): 10.2
[5]
  Activity: Non-Toxic
[6]
  inhibition at 48 h, 60 µM: 16.3%
[7]
  Kp: 0.794
[8]
  inhibition at 2 s, 100 µM: 47.6%
[9]
  Activity: Non-Toxic
[10]
  inhibition at 48 h, 120 µM: 8.7%
[11]
  inhibition at 48 h, 60 µM: 11.5%
[12]
  fold change (FC): 10.1
[13]
  Activity: Active
[33]
  Activity: inactive
[14]
  inhibition at 48 h, 120 µM: 34.4%
[15]
  inhibition at 48 h, 120 µM: 23.9%
[16]
  EC50: 7.8 µM

## Cc1cc(C)n(Cc2ccc(C(=O)Nc3ccc(-c4cccnc4)cc3)s2)n1
[1]
  inhibition at 48 h, 60 µM: -3.8%
[2]
  Activity: inactive
[3]
  inhibition at 2 s, 30 µM: 44.2%
[4]
  fold change (FC): 12.8
[5]
  Activity: Non-Toxic
[6]
  inhibition at 48 h, 60 µM: 6.5%
[7]
  Kp: 0.398
[8]
  inhibition at 2 s, 100 µM: 53.4%
[9]
  Activity: Non-Toxic
[10]
  inhibition at 48 h, 120 µM: -7.5%
[11]
  inhibition at 48 h, 60 µM: 27.5%
[12]
  fold change (FC): 14.3
[13]
  Activity: Active
[33]
  Activity: inactive
[14]
  inhibition at 48 h, 120 µM: 18%
[15]
  inhibition at 48 h, 120 µM: 28.6%
[16]
  EC50: 3.6 µM
